Patent US20110160223A1, “NMDA Receptor Antagonists for the Treatment of Neuropsychiatric Disorders” (priority 2008, published 2011)
Read-outs that look alike come from different tables or passages of the source. Blank lines part the entries; values can stand above or below the compound they belong to.

Molecular target: NMDA receptor (NR1 + NR2 subunits) (Rattus norvegicus, UniProt P35439+Q00960)
Test: Two electrode voltage clamp recording from Xenopus laevis oocytes (pH dependence of NMDA antagonism)
Type: cell-based
Protocol: cRNA was synthesized from linearized template cDNA for rat glutamate receptor subunits according to manufacturer specifications (Ambion). Quality of synthesized cRNA was assessed by gel electrophoresis, and quantity was estimated by spectroscopy and gel electrophoresis. Stage V and VI oocytes were surgically removed from the ovaries of large, well-fed and healthy Xenopus laevis anesthetized with 3-amino-benzoic acid ethyl ester (3 gm/l) as previously described. Clusters of isolated oocytes were incubated with 292 U/ml Worthington (Freehold, N.J.) type IV collagenase or 1.3 mg/ml collagenase (Life Technologies, Gaithersburg, Md.; 17018-029) for 2 hr in Ca^2+-free solution comprised of (in mM) 115 NaCl, 2.5 KCl, and 10 HEPES, pH 7.5, with slow agitation to remove the follicular cell layer. Oocytes were then washed extensively in the same solution supplemented with 1.8 mM CaCl2 and maintained in Barth's solution comprised of (in mM): 88 NaCl, 1 KCl, 2.4 NaHCO3, 10 HEPES, 0.82 MgSO4, 0.33 Ca(NO3)2, and 0.91 CaCl2 and supplemented with 100 μg/ml gentamycin, 10 μg/ml streptomycin, and 10 μg/ml penicillin. Oocytes were manually defolliculated and injected within 24 hrs of isolation with 3-5 ng of NR1 subunit cRNA and 7-10 ng of NR2 cRNA subunit in a 50 nl volume, or 5-10 ng of AMPA or kainate receptor cRNAs in a 50 nl volume, and incubated in Barth's solution at 18° C. for 1-7 d. Glass injection pipettes had tip sizes ranging from 10-20 microns, and were backfilled with mineral oil.
Two electrode voltage-clamp recordings were made 2-7 days post-injection as previously described. Oocytes were placed in a dual-track plexiglass recording chamber with a single perfusion line that splits in a Y-configuration to perfuse two oocytes. Dual recordings were made at room temperature (23° C.) using two Warner OC725B two-electrode voltage clamp amplifiers, arranged as recommended by the manufacturer. Glass microelectrodes (1-10 Megaohms) were filled with 300 mM KCl (voltage electrode) or 3 M KCl (current electrode). The bath clamps communicated across silver chloride wires placed into each side of the recording chamber, both of which were assumed to be at a reference potential of 0 mV. Oocytes were perfused with a solution comprised of (in mM) 90 NaCl, 1 KCl, 10 HEPES, and 0.5 BaCl2; pH was adjusted by addition of 1-3 M NaOH of HCl. Oocytes were recorded under voltage clamp at −40 mV. Final concentrations for control application of glutamate (50 μM) plus glycine (30 μM) were achieved by adding appropriate volumes from 100 and 30 mM stock solutions, respectively. In addition, 10 μM final EDTA was obtained by adding a 1:1000 dilution of 10 mM EDTA, in order to chelate contaminant divalent ions such as Zn^2+. Concentration-response curves for experimental compounds were obtained by applying in successive fashion maximal glutamate/glycine, followed by glutamate/glycine plus variable concentrations of experimental compounds. Dose response curves consisting of 4 to 8 concentrations were obtained in this manner. The baseline leak current at −40 mV was measured before and after recording, and the full recording linearly corrected for any change in leak current. Oocytes with glutamate-evoked responses smaller than 50 nA were not included in the analysis. The level of inhibition by applied experimental compounds was expressed as a percent of the initial glutamate response, and averaged together across oocytes from a single frog. Each experiment consisted of recordings from 3 to 10 oocytes obtained from a single frog. Results from 3-6 experiments were pooled, and the average percent responses at antagonist concentrations were fitted by the equation,
Percent Response=(100−minimum)/(1+([conc]/IC50)^nH)+minimum […]

[1] = pH 6.9, Table 17, read-out: IC50 at pH 6.9
[2] = pH 7.6, Table 17, read-out: IC50 at pH 7.6
[3] = pH 6.9, Table 18, read-out: IC50 at pH 6.9
[4] = pH 7.6, Table 18, read-out: IC50 at pH 7.6
[5] = pH 6.9, Table 19, read-out: IC50 at pH 6.9
[6] = pH 7.6, Table 19, read-out: IC50 at pH 7.6

Sequence of NMDA receptor (NR1 + NR2 subunits) (Q00960 27-1482, other chains not shown): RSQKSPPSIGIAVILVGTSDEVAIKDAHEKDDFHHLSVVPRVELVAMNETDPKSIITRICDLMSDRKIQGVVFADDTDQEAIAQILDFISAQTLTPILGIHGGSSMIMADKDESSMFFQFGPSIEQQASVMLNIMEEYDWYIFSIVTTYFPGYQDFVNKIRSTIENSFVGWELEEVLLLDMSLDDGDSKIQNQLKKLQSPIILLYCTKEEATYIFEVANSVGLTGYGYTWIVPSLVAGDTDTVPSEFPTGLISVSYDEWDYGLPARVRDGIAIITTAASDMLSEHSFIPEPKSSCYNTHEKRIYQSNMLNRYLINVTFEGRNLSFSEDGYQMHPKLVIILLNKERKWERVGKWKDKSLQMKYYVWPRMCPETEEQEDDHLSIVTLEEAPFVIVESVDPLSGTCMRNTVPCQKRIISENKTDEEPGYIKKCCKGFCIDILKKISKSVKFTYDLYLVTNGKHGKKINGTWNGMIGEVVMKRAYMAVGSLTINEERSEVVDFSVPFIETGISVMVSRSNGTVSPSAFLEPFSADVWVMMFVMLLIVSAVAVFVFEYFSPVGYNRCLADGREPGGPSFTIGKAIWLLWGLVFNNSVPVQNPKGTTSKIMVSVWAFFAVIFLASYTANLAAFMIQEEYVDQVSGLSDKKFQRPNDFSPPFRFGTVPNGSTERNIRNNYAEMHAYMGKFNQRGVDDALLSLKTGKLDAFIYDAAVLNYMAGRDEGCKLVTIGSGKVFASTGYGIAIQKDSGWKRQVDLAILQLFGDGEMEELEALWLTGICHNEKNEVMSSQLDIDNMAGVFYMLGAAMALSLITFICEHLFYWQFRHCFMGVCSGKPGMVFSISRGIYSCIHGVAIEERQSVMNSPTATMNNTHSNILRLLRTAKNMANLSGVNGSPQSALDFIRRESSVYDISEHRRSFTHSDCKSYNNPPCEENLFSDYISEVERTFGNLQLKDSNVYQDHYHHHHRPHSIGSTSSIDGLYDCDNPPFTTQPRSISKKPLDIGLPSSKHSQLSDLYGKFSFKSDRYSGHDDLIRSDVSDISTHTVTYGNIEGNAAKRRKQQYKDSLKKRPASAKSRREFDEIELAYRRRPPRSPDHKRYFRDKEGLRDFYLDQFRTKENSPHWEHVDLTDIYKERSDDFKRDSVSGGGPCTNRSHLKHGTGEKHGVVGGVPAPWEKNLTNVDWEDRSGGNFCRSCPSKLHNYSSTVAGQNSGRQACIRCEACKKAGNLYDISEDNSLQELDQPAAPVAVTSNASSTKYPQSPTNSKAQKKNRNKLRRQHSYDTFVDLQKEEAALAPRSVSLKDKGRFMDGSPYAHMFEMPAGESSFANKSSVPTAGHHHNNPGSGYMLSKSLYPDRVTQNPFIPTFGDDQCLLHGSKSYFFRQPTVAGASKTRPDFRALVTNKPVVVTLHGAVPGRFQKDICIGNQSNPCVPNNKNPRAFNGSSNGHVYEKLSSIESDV

SMILES: CS(=O)(=O)Nc1ccc(OCC(O)CNCCNc2ccc(Cl)c(Cl)c2)cc1 (stereo not drawn)
- IC50 [1]: 12 nM
- IC50 [2]: 62 nM

SMILES: CS(=O)(=O)Nc1ccc(OCC(O)CN2CCN(c3ccccc3)CC2)cc1 (stereo not drawn)
- IC50 [1]: 213 nM
- IC50 [2]: 1020 nM

SMILES: CS(=O)(=O)Nc1ccc(OCC(O)CN2CCN(c3ccccn3)CC2)cc1 (stereo not drawn)
- IC50 [1]: 1810 nM
- IC50 [2]: 12700 nM

SMILES: CS(=O)(=O)Nc1ccc(OCC(O)CN2CCN(c3ccncc3)CC2)cc1 (stereo not drawn)
- IC50 [1]: > 30000 nM
- IC50 [2]: > 30000 nM

SMILES: CS(=O)(=O)Nc1ccc(OCC(O)CNCCNc2ccccc2)cc1 (stereo not drawn)
- IC50 [1]: 55 nM
- IC50 [2]: 133 nM

SMILES: CS(=O)(=O)Nc1ccc(OCC(O)CNCCNc2ccc(F)c(F)c2)cc1 (stereo not drawn)
- IC50 [1]: 108 nM
- IC50 [2]: 199 nM

SMILES: CS(=O)(=O)Nc1ccc(OCC(O)CNC/C=C/c2ccc(Cl)c(Cl)c2)cc1 (stereo not drawn)
- IC50 [1]: 7 nM
- IC50 [2]: 38 nM

SMILES: CCCCN(C/C=C/c1ccc(Cl)c(Cl)c1)CC(O)COc1ccc(NS(C)(=O)=O)cc1 (stereo not drawn)
- IC50 [1]: 163 nM
- IC50 [2]: 2580 nM

SMILES: CS(=O)(=O)Nc1ccc(OCC(O)CNC/C=C/c2ccc(F)c(F)c2)cc1 (stereo not drawn)
- IC50 [1]: 38 nM
- IC50 [2]: 71 nM

SMILES: O=c1[nH]c2ccc(OC[C@H](O)CN3CCN(c4ccc(F)c(F)c4)CC3)cc2o1
- IC50 [3]: 145 nM
- IC50 [4]: 1700 nM

SMILES: O=c1[nH]c2ccc(OC[C@H](O)CN3CCN(c4ccc(Cl)c(Cl)c4)CC3)cc2o1
- IC50 [3]: 185 nM
- IC50 [4]: 1500 nM

SMILES: O=c1[nH]c2ccc(OCC(O)CNCCc3ccc(Cl)c(Cl)c3)cc2o1 (stereo not drawn)
- IC50 [3]: 185 nM
- IC50 [4]: 446 nM

SMILES: O=c1[nH]c2ccc(OCC(O)CNCCNc3ccc(Cl)cc3)cc2o1 (stereo not drawn)
- IC50 [3]: 25 nM
- IC50 [4]: 97 nM

Further lines, results first:

- IC50 [1]: 31 nM
- IC50 [2]: 557 nM
SMILES: CS(=O)(=O)Nc1ccc(OCC(O)CN2CCN(c3ccc(F)c(F)c3)CC2)cc1 (stereo not drawn)

- IC50 [1]: 296 nM
- IC50 [2]: 1020 nM
SMILES: CS(=O)(=O)Nc1ccc(OCC(O)CN2CCN(c3ccc(Cl)c(Cl)c3)CC2)cc1 (stereo not drawn)

- IC50 [1]: 32 nM
- IC50 [2]: 270 nM
SMILES: CS(=O)(=O)Nc1ccc(OCC(O)CN2CCN(c3ccc(Cl)cc3)CC2)cc1 (stereo not drawn)

- IC50 [1]: 2400 nM
- IC50 [2]: 28000 nM
SMILES: CS(=O)(=O)Nc1ccc(OCC(O)CN2CCN(c3ccc(O)cc3)CC2)cc1 (stereo not drawn)

- IC50 [3]: 79 nM
- IC50 [4]: 726 nM
SMILES: O=c1[nH]c2ccc(OCC(O)CN3CCN(c4ccc(Cl)cc4)CC3)cc2o1 (stereo not drawn)

- IC50 [3]: 72 nM
- IC50 [4]: 644 nM
SMILES: Cc1ccc(N2CCN(C[C@@H](O)COc3ccc4[nH]c(=O)oc4c3)CC2)cc1

- IC50 [5]: 80 nM
- IC50 [6]: 814 nM
SMILES: Oc1ccc(OC[C@H](O)CN2CCN(c3ccc(Cl)cc3)CC2)cc1

- IC50 [5]: 131 nM
- IC50 [6]: 611 nM
SMILES: Oc1ccc(OC[C@H](O)CN2CCN(c3ccc(Cl)c(Cl)c3)CC2)cc1

- IC50 [5]: 87 nM
- IC50 [6]: 980 nM
SMILES: Oc1ccc(OCC(O)CN2CCN(c3ccc(F)c(F)c3)CC2)cc1 (stereo not drawn)

- IC50 [5]: 50 nM
- IC50 [6]: 272 nM
SMILES: Oc1ccc(OC[C@H](O)CN2CCN(c3ccc(F)c(F)c3)CC2)cc1

- IC50 [5]: 87 nM
- IC50 [6]: 529 nM
SMILES: Oc1ccc(OC[C@H](O)CN2CCN(c3ccc(F)cc3)CC2)cc1

- IC50 [5]: 1500 nM
- IC50 [6]: 5790 nM
SMILES: Cc1ccc(N2CCN(CC(O)COc3ccc(O)cc3)CC2)cc1C (stereo not drawn)

- IC50 [5]: 70 nM
- IC50 [6]: 260 nM
SMILES: Cc1ccc(N2CCN(CC(O)COc3ccc(O)cc3)CC2)cc1 (stereo not drawn)

- IC50 [5]: 460 nM
- IC50 [6]: 4370 nM
SMILES: N#Cc1ccc(N2CCN(C[C@@H](O)COc3ccc(O)cc3)CC2)cc1

- IC50 [5]: 73 nM
- IC50 [6]: 204 nM
SMILES: Oc1ccc(OCC(O)CN2CCN(c3ccc(Br)cc3)CC2)cc1 (stereo not drawn)

- IC50 [5]: 576 nM
- IC50 [6]: 4700 nM
SMILES: Oc1ccc(OCC(O)CN2CCN(c3ccc(O)cc3)CC2)cc1 (stereo not drawn)

- IC50 [5]: 562 nM
- IC50 [6]: 9740 nM
SMILES: COc1ccc(N2CCN(C[C@@H](O)COc3ccc(O)cc3)CC2)cc1
